Source: US20080031968A1, “Methods for increasing cellular energy expenditure” (priority 2005, published 2008)

Key:
[1] = tested on: wildtype and D2-/- mice; assay: Diet-induced obesity in D2-/- mice and littermate controls; format: in vivo, mouse
Method: (§1) Male C57BL/6J and KK-Ay mice, 6-7 weeks of age, were obtained from Charles River Laboratories France (l'Arbresle, France) and CLEA Japan Inc. (Tokyo, Japan), respectively. […] All mice were maintained in a temperature-controlled (23° C.) facility with a 12 h light/dark cycle and were given free access to food and water. The control and high-fat diet was obtained from UAR (Villemoison surOrge, France). […] GW4064 was suspended in peanut oil and mixed with the high fat diet at a concentration of 180 mg per kg of food. […] The mice were fasted 4 h before harvesting blood for subsequent blood measurements, and tissues for RNA isolation, lipid measurements and histology. Oxygen consumption was measured using the Oxymax apparatus (Columbus Instruments, Columbus, Ohio).
Next, we used mice with a targeted disruption of the D2 gene (D2−/− mice) and littermate controls in a diet-induced obesity study for 50 days.

[2] = tested on: wild-type and LXRα/β-/- mice; assay: CA diet in wild-type and LXRα/β-/- mice; format: in vivo, mouse; details: 0.5% CA for 3 days
Method: (§2) Male C57BL/6J, KK-Ay, and ob/ob (C57BL/6J background) mice, 6-10 weeks of age, were obtained from Elevage Janvier (Le Genest St. Isle, France), CLEA Japan Inc. (Tokyo, Japan), and The Jackson Laboratory (Bar Harbor, Me., USA), respectively. All mice were maintained in a temperature-controlled (23° C.) facility with a 12-hour light/dark cycle and were given free access to food and water. The study protocols were approved by the institutional review boards. The body weight and food intake were measured every second day. The control and high-fat diet was obtained from UAR (Villemoisson sur Orge, France). […] The mice were fasted 4 hours before harvesting blood for subsequent lipid measurements, and tissues for RNA isolation, lipid measurements, and histology.
To determine whether LXR is essential for the TG-lowering effect of bile acids, we used LXRα/LXRβ double-knockout mice ([…]).

[3] = tested on: C57BL/6J mice; assay: Indirect calorimetry (Oxymax); format: in vivo, mouse
Method: as §1

[4] = tested on: C57BL/6J mice; assay: LXR agonist-induced lipogenesis in C57BL/6J mice with or without CA; format: in vivo, mouse
Method: as §2
Mice were gavaged with the LXR agonist T0901317 or vehicle, and the different diets were continued for one more day, after which the mice were sacrificed.

[5] = tested on: BAT; assay: cAMP levels in BAT of mice fed high fat diet with CA; format: in vivo, mouse; details: mice fed high fat diet with CA vs control mice
Method: (§3) An OGTT was performed in animals that were fasted overnight. Glucose was administered by gavage at a dose of 2 g/kg. An IPITT was done in 4 h fasted animals. Insulin was injected at a dose of 0.75 U/kg. Glucose quantification was done with the Maxi Kit Glucometer 4 (Bayer Diagnostic, Puteaux, France) or Glucose RTU (bioMérieux Inc., Marcy l'Etoile, France). Plasma insulin concentrations were measured using ELISA (Cristal Chem Inc., Downers Grove, Ill.). Nonesterified fatty acids, triglycerides, ketone bodies, BA and total cholesterol were determined by enzymatic assays (Roche, Mannheim, Germany). cAMP was measured using the cAMP-Screen system (Applied Biosystems, Bedford, Mass.).

[6] = tested on: SHP+/+ and SHP-/- mice; assay: FXR agonists in SHP+/+ and SHP-/- mice; format: in vivo, mouse; details: for hepatic expression of SREBP-1c, ME, CYP7A1 and ANGPTL3: 1-day treatment
Method: as §2

[7] = tested on: KK-Ay mice; assay: Liver TG and cholesterol content and histology in KK-Ay mice; format: in vivo, mouse
Method: as §2
(§4) For measurement of liver TGs and cholesterol content, a liver was homogenized in chloroform/methanol (2:1 v/v) using a Polytron tissue grinder (Kinematica AG, Luzern, Switzerland). Lipid extracts were prepared by the classical Folch method. Extracts were dried under N2 flow and resuspended in isopropanol.

[8] = tested on: HSMM; assay: cAMP levels in human skeletal muscle myoblasts; format: cell-based; details: 1 mM IBMX, 30 minutes
Method: HSMM were obtained from Cambrex (Walkersville, Md.) and were cultured according to the suppliers instructions. […] For the cAMP measurements, cells were preincubated 12 h in Opti-MEM (Life Technologies, Cergy Pontoise, France), supplemented with 1 mM IBMX. Then medium was changed and cells were incubated for another 1 h in Opti-MEM with 1 mM IBMX, after which the medium was replaced for Opti-MEM with 1 mM IBMX and the indicated compounds. After 30 minutes the cells were lysed for cAMP analysis.

[9] = tested on: C57BL/6J mice; assay: Diet-induced obesity in C57BL/6J mice; format: in vivo, mouse
Method: as §1, §3
Pieces of mouse tissues were fixed in Bouin's solution, dehydrated in ethanol, embedded in paraffin, and cut at a thickness of 5 μm. Sections were deparaffinized, rehydrated, and stained with haematoxylin and eosin. Transmission electron microscopy was then performed.

[10] = tested on: KK-Ay mice; assay: CA in KK-Ay mice, body weight, OGTT and IPITT; format: in vivo, mouse
Method: as §1, §3

[11] = tested on: KK-Ay and C57BL/6J mice; assay: Tissue mRNA levels by quantitative RT-PCR after CA supplementation; format: in vivo, mouse
Method: as §2
Total RNA was extracted from frozen tissue samples or cells using the RNeasy kit (QIAGEN, Courtaboeuf, France). cDNA was synthesized from total RNA with the SuperScript First-Strand Synthesis System (Invitrogen) and random hexamer primers. The real-time PCR measurement of individual cDNAs was performed using SYBR green dye to measure duplex DNA formation with the LightCycler System (Roche Diagnostics, Meylan, France). The sequences of the primer sets used are available online at http://www-igbmc.ustrasbg.fr/Departments/Dep_V/Dep_VA/Publi/Paper.html.

[12] = tested on: humans; details: cited from earlier work
[13] = tested on: KK-Ay mice; assay: CA or GW4064 treatment of KK-Ay mice, serum lipids; format: in vivo, mouse; details: KK-Ay mice; for lowered circulating TG levels / total plasma cholesterol decreased: 1 week
Method: as §2, §4

[14] = tested on: KK-Ay mice; assay: In vivo VLDL TG production (Tyloxapol) in KK-Ay mice; parameters: species or system mouse; details: 1 week of CA feeding, chow and high-fat diet
[15] = CA coadministration with T0901317
[16] = high fat diet supplemented with CA, histology
[17] = KK-Ay mice, CA added to normal chow diet
[18] = KK-Ay and C57BL/6J mice, 1 and 7 days CA in chow
[19] = CA feeding, HPLC of lipoproteins

## C[C@H](CCC(=O)O)[C@H]1CC[C@H]2[C@@H]3[C@H](O)C[C@@H]4C[C@H](O)CC[C@]4(C)[C@H]3C[C@H](O)[C@]12C [CA, cholic acid]
[1]; D2-/- mice, CA added to high fat diet, 50 days
  development of obesity: no effect
[1]; wildtype mice, CA added to high fat diet, 50 days
  diet induced obesity: prevented diet induced obesity
[1]; wildtype mice, CA feeding
  expression of PGC-1α in BAT: significantly induced
[2]; LXRα/β-/- mice
  decrease in serum TGs, SREBP-1c and ME: not observed
[2]; wild-type and LXRα/β-/- animals
  SHP expression: induced significantly
[2]; wild-type animals
  serum TG: decreased serum TG
[3]; high fat diet containing CA vs high fat or normal diet
  CO2 production and O2 consumption: higher
[3]; high fat diet supplemented with CA
  respiratory quotient (RQ=VCO2/VO2): not affected
[4]; [15]
  SHP expression: increased SHP expression
  SREBP-1c and its target genes: prevented the induction
[4]; coadministration of 0.5% CA with T0901317
  LXR agonist induction of liver weight and serum TGs: completely prevented
[5]
  cAMP levels in BAT: significantly elevated
[6]; SHP+/+ mice, 0, 3 and 7 days
  serum TGs: significantly lowered
[6]; SHP+/+ mice
  hepatic expression of SREBP-1c, ME, CYP7A1 and ANGPTL3: significantly reduced
[6]; SHP-/- mice
  decrease in serum TGs: completely abolished
  hepatic expression of SREBP-1c, ME, CYP7A1 and ANGPTL3: no decrease
[7]; CA 3 weeks, chow or high-fat diet
  liver TGs content: significantly lower
[7]; CA 3 weeks, particularly high-fat diet
  hepatic cholesterol: increased hepatic cholesterol
[7]; high-fat diet with CA, 3 weeks
  neutral lipids in liver sections (Oil Red O): accumulated less neutral lipids
[8]
  cAMP levels: increased cAMP levels in a dose-dependant fashion
[9]; C57BL/6J mice with diet-induced obesity
  glucose tolerance: improves glucose tolerance
[9]; chow diet supplemented with CA
  body weight gain: no effect
[9]; diet supplementation with CA
  high fat-induced changes in adipose mass and morphology: completely prevented
[9]; high fat diet supplemented with 0.5% CA
  weight gain: reduced the weight gain
[9]; [16]
  adipocyte hypertrophy in WAT and BAT: not observed
  liver steatosis: reversed
[9]; obese mice switched to high fat diet containing CA
  120-days of diet-induced weight gain: reversed
[9]; obese mice switched to high fat diet containing CA (F-FA)
  time to return to normal body weight: ≤ 30 days
[10]; [17]
  body weight: decreased body weight
  metabolic control (oral glucose tolerance test, intraperitoneal insulin tolerance test): improved metabolic control
[10]; KK-Ay mouse
  insulin sensitivity: improve insulin sensitivity
[11]; C57BL/6J mice, 1 and 7 days CA
  hepatic expression of MCAD and LCAD: significantly decreased
[11]; CA treatment
  expression of lipogenic genes in white adipose tissue: none of the lipogenic genes were lowered
  hepatic expression of SHP: robust induction
[11]; [18]
  hepatic expression of AceCS, ME and SCD-1: significantly reduced
  hepatic expression of LXRA, LRH-1, FXR and SREBP-2: No major changes
[11]; KK-Ay mice, CA
  hepatic expression of CPT-I, MCAD and LCAD: no change
[12]
  hepatotoxicity: significant hepatotoxicity
[13]; [19]
  HDL cholesterol: decreasing HDL cholesterol
  VLDL TGs: decreasing VLDL TGs
[13]; CA feeding, particularly on high-fat diet
  plasma FFAs: decreased plasma FFAs
[13]; high-fat diet with 0.5% CA
  lowered circulating TG levels: 65%
  total plasma cholesterol decreased: 35%
[13]; normal-chow diet with 0.5% CA
  lowered circulating TG levels: 51%
  total plasma cholesterol decreased: 24%
[14]
  liver VLDL production: significantly decreased
